Key:
[1] = molecular target: T1, Alpha-1A adrenergic receptor (Homo sapiens, UniProt P35348); assay type: functional, cell-based
T1 sequence (P35348 whole entry): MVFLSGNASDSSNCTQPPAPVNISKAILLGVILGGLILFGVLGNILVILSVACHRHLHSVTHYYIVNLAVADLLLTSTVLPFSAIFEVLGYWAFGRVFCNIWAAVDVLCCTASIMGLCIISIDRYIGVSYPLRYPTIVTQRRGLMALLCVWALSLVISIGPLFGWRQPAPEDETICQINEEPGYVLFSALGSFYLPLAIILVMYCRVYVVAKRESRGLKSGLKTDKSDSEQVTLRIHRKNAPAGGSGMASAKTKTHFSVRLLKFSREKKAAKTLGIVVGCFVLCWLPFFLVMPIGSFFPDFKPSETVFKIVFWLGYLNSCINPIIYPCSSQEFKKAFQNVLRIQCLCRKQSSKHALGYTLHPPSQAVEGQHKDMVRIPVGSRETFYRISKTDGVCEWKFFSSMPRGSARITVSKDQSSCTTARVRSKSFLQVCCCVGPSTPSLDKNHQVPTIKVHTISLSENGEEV

[2] = molecular target: T2, Alpha-2B adrenergic receptor (Homo sapiens, UniProt P18089)
T2 sequence (P18089 whole entry): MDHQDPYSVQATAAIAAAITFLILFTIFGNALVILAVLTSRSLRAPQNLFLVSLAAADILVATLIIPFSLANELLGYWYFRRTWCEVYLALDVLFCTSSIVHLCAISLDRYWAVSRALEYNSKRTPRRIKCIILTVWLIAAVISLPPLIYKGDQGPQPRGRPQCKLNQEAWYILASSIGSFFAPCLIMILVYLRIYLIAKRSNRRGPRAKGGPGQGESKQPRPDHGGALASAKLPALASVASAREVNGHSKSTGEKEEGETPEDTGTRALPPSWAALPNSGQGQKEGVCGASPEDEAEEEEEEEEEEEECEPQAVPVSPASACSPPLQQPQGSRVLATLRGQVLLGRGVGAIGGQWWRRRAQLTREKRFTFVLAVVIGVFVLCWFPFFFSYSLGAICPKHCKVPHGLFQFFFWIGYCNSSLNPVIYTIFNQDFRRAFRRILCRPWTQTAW

[3] = molecular target: Beta-1 adrenergic receptor (Homo sapiens, UniProt P08588); assay type: functional
Sequence of Beta-1 adrenergic receptor (P08588 whole entry): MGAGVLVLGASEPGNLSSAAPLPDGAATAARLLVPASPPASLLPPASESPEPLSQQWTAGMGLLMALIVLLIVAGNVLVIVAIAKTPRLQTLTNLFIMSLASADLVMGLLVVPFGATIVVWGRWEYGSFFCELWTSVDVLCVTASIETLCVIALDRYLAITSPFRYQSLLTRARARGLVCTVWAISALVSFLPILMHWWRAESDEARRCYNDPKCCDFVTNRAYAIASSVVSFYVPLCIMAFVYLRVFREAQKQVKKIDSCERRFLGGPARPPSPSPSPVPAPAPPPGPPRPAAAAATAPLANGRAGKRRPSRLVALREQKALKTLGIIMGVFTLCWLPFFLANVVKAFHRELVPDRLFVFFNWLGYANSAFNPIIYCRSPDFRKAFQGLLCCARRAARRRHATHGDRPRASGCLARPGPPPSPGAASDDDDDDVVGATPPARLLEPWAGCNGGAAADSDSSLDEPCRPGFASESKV

[4] = molecular target: T3, Muscarinic acetylcholine receptor M2 (Homo sapiens, UniProt P08172); assay type: functional, cell-based
T3 sequence (P08172 whole entry): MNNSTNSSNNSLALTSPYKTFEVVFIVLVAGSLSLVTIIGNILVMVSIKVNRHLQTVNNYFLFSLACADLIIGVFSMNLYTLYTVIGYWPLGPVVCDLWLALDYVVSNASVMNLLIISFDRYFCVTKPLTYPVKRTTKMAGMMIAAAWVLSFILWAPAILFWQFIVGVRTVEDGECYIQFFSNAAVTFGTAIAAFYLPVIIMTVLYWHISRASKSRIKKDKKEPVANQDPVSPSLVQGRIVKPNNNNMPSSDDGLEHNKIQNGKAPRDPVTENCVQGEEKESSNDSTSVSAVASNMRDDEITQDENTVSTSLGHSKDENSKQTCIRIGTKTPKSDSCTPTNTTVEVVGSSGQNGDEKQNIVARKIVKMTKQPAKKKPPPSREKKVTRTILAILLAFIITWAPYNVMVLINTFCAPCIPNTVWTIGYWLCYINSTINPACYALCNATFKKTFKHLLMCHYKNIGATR

[5] = molecular target: Cannabinoid receptor 1 (Homo sapiens, UniProt P21554); assay type: functional, cell-based
Sequence of Cannabinoid receptor 1 (P21554 whole entry): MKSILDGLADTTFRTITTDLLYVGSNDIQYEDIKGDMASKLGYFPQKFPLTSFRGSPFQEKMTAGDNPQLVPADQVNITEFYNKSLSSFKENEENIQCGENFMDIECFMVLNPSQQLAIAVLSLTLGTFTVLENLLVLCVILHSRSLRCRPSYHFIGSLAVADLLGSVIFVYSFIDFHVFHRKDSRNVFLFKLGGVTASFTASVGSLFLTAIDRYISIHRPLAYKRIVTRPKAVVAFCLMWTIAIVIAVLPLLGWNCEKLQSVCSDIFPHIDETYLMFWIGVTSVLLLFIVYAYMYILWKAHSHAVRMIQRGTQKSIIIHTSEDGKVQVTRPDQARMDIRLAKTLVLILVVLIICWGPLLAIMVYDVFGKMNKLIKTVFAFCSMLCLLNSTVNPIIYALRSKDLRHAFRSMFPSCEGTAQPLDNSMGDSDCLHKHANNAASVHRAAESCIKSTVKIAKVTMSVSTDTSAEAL

[6] = molecular target: Glutamate receptor ionotropic, NMDA 1 (Rattus norvegicus, UniProt P35439)
[7] = molecular target: Histamine H1 receptor (Homo sapiens, UniProt P35367)
Sequence of Histamine H1 receptor (P35367 whole entry): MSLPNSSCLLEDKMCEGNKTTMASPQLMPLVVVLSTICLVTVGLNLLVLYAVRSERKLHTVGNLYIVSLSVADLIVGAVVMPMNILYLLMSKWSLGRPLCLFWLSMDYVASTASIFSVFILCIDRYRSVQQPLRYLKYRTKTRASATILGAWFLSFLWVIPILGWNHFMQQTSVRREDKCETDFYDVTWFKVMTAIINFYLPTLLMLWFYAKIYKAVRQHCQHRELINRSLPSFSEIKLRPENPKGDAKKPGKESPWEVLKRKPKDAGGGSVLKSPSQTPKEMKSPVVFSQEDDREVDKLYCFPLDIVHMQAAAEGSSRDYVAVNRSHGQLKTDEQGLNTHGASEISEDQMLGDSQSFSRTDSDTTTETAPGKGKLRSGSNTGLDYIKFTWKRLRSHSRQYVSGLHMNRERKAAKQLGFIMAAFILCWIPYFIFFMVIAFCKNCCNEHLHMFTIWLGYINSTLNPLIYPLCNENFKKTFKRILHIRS

[8] = molecular target: T4, 5-hydroxytryptamine receptor 1A (Homo sapiens, UniProt P08908); assay type: functional, cell-based
T4 sequence (P08908 whole entry): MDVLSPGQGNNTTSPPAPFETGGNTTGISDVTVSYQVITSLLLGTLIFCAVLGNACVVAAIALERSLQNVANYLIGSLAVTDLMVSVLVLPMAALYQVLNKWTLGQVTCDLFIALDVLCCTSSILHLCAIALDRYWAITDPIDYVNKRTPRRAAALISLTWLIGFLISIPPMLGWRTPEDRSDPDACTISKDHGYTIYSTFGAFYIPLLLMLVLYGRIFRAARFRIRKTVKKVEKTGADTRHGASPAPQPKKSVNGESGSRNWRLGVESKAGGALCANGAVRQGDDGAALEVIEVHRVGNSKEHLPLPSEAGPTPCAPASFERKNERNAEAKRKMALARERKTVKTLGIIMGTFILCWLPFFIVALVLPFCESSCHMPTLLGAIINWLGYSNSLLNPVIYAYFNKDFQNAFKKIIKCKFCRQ

[9] = molecular target: 5-hydroxytryptamine receptor 2A (Homo sapiens, UniProt P28223); assay type: functional, cell-based
Sequence of 5-hydroxytryptamine receptor 2A (P28223 whole entry): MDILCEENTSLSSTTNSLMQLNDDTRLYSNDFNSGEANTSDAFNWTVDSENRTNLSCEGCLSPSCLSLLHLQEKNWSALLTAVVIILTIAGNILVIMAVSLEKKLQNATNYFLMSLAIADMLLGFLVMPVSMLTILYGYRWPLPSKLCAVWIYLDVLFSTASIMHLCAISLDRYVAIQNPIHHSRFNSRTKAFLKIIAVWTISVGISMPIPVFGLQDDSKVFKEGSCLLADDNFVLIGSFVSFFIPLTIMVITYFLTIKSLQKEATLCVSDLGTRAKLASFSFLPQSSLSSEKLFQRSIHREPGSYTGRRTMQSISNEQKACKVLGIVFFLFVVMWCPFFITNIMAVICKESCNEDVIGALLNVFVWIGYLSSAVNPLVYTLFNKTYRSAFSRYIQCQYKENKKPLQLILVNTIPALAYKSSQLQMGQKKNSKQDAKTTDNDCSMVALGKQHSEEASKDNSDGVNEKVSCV

[10] = molecular target: 5-hydroxytryptamine receptor 2B (Homo sapiens, UniProt P41595); assay type: functional, cell-based
Sequence of 5-hydroxytryptamine receptor 2B (P41595 whole entry): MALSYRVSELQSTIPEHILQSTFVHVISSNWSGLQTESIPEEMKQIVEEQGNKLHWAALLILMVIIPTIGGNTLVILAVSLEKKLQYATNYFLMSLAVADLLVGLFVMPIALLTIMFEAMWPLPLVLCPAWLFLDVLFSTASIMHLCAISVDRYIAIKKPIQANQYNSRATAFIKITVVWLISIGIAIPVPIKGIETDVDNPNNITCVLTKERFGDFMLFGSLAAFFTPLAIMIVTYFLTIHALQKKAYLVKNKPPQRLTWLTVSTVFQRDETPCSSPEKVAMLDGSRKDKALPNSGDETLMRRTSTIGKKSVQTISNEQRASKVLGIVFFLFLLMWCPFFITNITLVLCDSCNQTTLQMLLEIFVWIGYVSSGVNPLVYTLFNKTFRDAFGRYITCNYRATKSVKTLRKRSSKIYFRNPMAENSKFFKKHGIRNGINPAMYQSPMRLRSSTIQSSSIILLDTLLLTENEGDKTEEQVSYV

[11] = molecular target: Delta-type opioid receptor (Homo sapiens, UniProt P41143)
Sequence of Delta-type opioid receptor (P41143 whole entry): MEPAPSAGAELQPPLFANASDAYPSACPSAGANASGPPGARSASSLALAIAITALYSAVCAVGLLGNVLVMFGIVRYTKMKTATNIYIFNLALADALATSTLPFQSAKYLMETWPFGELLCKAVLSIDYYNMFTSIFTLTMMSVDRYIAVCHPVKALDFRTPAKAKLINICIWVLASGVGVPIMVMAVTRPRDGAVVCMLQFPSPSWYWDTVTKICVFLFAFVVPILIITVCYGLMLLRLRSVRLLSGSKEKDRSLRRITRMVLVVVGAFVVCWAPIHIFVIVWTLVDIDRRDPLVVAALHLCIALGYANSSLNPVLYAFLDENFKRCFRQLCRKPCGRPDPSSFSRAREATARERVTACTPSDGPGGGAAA

[12] = molecular target: Kappa-type opioid receptor (Homo sapiens, UniProt P41145)
Sequence of Kappa-type opioid receptor (P41145 whole entry): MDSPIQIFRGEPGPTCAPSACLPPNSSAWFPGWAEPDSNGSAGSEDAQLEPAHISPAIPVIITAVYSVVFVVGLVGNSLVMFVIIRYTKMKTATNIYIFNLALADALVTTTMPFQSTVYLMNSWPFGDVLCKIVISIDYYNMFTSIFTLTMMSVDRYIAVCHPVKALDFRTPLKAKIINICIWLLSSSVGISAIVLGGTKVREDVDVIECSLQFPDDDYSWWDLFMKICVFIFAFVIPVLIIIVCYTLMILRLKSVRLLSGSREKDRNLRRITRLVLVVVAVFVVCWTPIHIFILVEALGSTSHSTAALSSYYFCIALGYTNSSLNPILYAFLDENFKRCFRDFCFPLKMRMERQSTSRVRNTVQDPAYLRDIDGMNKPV

[13] = molecular target: Histamine H3 receptor (Homo sapiens, UniProt Q9Y5N1)
Sequence of Histamine H3 receptor (Q9Y5N1 whole entry): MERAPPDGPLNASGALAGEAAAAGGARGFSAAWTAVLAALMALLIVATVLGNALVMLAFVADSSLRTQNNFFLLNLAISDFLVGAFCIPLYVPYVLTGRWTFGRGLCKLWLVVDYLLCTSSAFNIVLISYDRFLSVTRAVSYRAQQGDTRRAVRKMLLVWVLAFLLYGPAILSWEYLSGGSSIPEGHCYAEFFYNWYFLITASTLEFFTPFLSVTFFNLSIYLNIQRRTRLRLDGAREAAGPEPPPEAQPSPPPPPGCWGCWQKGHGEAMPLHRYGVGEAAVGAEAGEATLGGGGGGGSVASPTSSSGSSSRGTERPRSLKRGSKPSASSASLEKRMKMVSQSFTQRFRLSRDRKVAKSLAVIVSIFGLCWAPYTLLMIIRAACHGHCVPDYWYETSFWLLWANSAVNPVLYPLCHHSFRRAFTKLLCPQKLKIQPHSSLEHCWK

[14] = molecular target: T5, Endothelin-1 receptor (Homo sapiens, UniProt P25101)
T5 sequence (P25101 whole entry): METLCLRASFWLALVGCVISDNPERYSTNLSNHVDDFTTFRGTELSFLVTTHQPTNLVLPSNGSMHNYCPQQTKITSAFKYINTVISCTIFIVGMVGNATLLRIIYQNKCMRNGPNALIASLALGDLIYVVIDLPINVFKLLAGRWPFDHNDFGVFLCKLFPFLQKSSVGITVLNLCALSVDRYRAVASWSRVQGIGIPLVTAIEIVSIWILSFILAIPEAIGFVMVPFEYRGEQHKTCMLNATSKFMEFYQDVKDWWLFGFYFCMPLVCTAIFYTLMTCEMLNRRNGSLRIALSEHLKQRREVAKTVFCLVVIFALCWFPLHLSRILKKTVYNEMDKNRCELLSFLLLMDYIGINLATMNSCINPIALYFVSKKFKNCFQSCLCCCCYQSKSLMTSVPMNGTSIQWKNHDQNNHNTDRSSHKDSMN
Also: assay procedure not described here.

Row | SMILES | AC50 [1] | AC50 [2] | AC50 [3] | AC50 [4] | AC50 [5] | AC50 [6] | AC50 [7] | AC50 [8] | AC50 [9] | AC50 [10] | AC50 [11] | AC50 [12] | AC50 [13] | AC50 [14]
1 | CN1CC(=O)N2[C@H](c3ccc4c(c3)OCO4)c3[nH]c4ccccc4c3C[C@@H]2C1=O | > 30 µM | > 10 µM | > 10 µM | > 10 µM | > 30 µM | > 10 µM | > 10 µM | > 10 µM | > 30 µM | > 10 µM | > 30 µM | > 10 µM | > 10 µM | 
2 | C=C1CC[C@@]2(O)[C@H]3Cc4ccc(O)c5c4[C@@]2(CCN3CC2CC2)[C@H]1O5 | > 30 µM | > 30 µM | > 30 µM | > 30 µM | > 30 µM | > 30 µM | > 30 µM | > 30 µM | > 30 µM | > 30 µM |  |  | > 30 µM | > 30 µM
3 | CC(C)C(=O)OCC(=O)[C@@]12O[C@H](C3CCCCC3)O[C@@H]1C[C@H]1[C@@H]3CCC4=CC(=O)C=C[C@]4(C)[C@H]3[C@@H](O)C[C@@]12C [CICLESONIDE] | > 30 µM | > 10 µM | > 10 µM | > 10 µM | > 30 µM | > 10 µM | > 10 µM | > 10 µM | > 10 µM | > 10 µM | > 30 µM | 9.72 µM |  | 
4 | CCCCOc1cc(C(=O)NCCN(CC)CC)c2ccccc2n1 [DIBUCAINE] | > 30 µM | > 10 µM | > 10 µM | > 10 µM | > 30 µM | > 10 µM | > 10 µM | > 10 µM | > 10 µM | > 10 µM | > 30 µM | 7.36 µM |  | 
5 | CCCCCCCCCCCC[N+](C)(C)CCOc1ccccc1 [DOMIPHEN] | > 30 µM | 3.8 µM | 3.1 µM |  | 17 µM | > 30 µM | 12 µM | 22 µM | > 30 µM | > 30 µM | > 30 µM | 3.6 µM | 12 µM | > 30 µM
6 | CCC1(C2=CCCCCC2)C(=O)NC(=O)NC1=O [HEPTABARBITAL] | > 30 µM | > 10 µM | > 10 µM | > 10 µM | > 30 µM | > 10 µM | > 10 µM | > 10 µM | > 10 µM | > 10 µM | > 30 µM | > 10 µM | > 10 µM | 
7 | COC(=O)C1=C(C)NC(C)=C(C(=O)OC(C)C)C1c1cccc2nonc12 (stereo unspecified) [ISRADIPINE] | > 30 µM | > 30 µM | > 10 µM | > 10 µM |  | > 10 µM | > 30 µM | > 10 µM | > 10 µM | > 10 µM | 11 µM | 10.7 µM |  | 
8 | CCCCCCC(C)(C)c1cc(O)c2c(c1)OC(C)(C)C1CCC(=O)CC21 (stereo unspecified) [NABILONE] | > 30 µM | > 30 µM | > 30 µM | > 30 µM |  | > 30 µM | > 30 µM | > 30 µM | > 30 µM | > 30 µM | > 30 µM | > 30 µM | > 30 µM | > 30 µM
9 | CCCCCCCCOc1ccccc1C(=O)Nc1ccc(C(=O)OCC[N+](C)(CC)CC)cc1 [OTILONIUM BROMIDE] | 12 µM | 2.9 µM | 11 µM |  | 19 µM | > 30 µM | 19 µM | 11 µM | > 30 µM | 12 µM | 29 µM | 3.4 µM | 17 µM | > 1 µM
10 | CN1C(=O)CC(c2ccccc2)C1=O (stereo unspecified) [PHENSUXIMIDE] |  | > 10 µM | > 10 µM | > 10 µM | > 30 µM | > 10 µM | > 10 µM | > 10 µM | > 10 µM | > 10 µM | > 30 µM | > 10 µM | > 10 µM | 
11 | O=C(O)CCCc1ccccc1 [PHENYLBUTANOIC ACID] | > 30 µM | > 30 µM | > 10 µM | > 30 µM |  | > 30 µM | > 30 µM | > 30 µM | > 30 µM | > 30 µM | > 30 µM | > 30 µM | > 10 µM | > 30 µM
12 | CC(Cc1ccccc1)NCCC(c1ccccc1)c1ccccc1 (stereo unspecified) [PRENYLAMINE] | > 30 µM | 1.7 µM | 6.8 µM | > 10 µM |  | > 10 µM | 7.9 µM | > 30 µM | > 30 µM | > 10 µM | > 30 µM | 0.382 µM | > 10 µM | 
13 | Cc1nc2ccc(CN(C)c3ccc(C(=O)N[C@@H](CCC(=O)O)C(=O)O)s3)cc2c(=O)[nH]1 [RALTITREXED] | > 30 µM | > 30 µM | > 30 µM | > 30 µM |  | > 30 µM | > 30 µM | > 30 µM | > 30 µM | > 30 µM | > 30 µM | > 30 µM | > 30 µM | > 30 µM
14 | C1COC(NC(C2CC2)C2CC2)=N1 [RILMENIDINE] | 3.4 µM | 7.5 µM | > 10 µM | > 10 µM | > 30 µM | > 10 µM | > 10 µM | > 30 µM | > 30 µM | > 10 µM | > 30 µM | 1.72 µM | > 10 µM | 
15 | CC(=O)NS(=O)(=O)c1ccc(N)cc1 [SULFACETAMIDE] |  | > 10 µM | > 10 µM | > 10 µM |  | > 10 µM | > 10 µM | > 10 µM | > 10 µM | > 10 µM | > 30 µM | > 10 µM | > 10 µM | 

Reference: ChEMBL document CHEMBL5291721, “A preclinical secondary pharmacology resource illuminates target-adverse drug reaction associations of marketed drugs” (Nat Commun, 2023)
